Measured values: patent publication US20180305657A1, “Bioactive Fungi” (Agriculture Victoria Services PTY LTD, priority 2015, published 2018)
Where two headings read alike, the source gives them in different places.

Key:
Tribolium castaneum = system: Tribolium castaneum
Procedure: A total of 20 chemical standards were evaluated for their insecticidal activity against the stored grain pest, Tribolium castaneum. These chemical standards represented compounds in the volatolome of Daldinia sp. or were structural analogues of these compounds (Table 5). […] The insect pest was inoculated on to one half of the Petri plate by placing 4 insects onto feed (wheat flour and yeast). A chemical standard was then aliquoted (5 microlitre) on to the other half of the Petri plate on filter paper. Plates were immediately sealed with Parafilm®, covered in aluminium foil (i.e. in the dark) and maintained at room temperature. The mortality of insects was monitored daily by assessing insect movement as an indicator of mortality. The mortality was calculated by comparing the number of dead insects to the total number in the plate, and expressed as percentage mortality (Tables 6). Data were analysed using ANOVA as performed in GenStat, version 14. The experiment was fully randomised with 5 replicates for each endophyte.

T. castaneum = system: T. castaneum
Procedure: The bioassays were conducted in 1 litre Schott bottles. The insect pest was inoculated into the bioassay by placing 9-12 insects onto feed (wheat flour and yeast). The biocidal compounds were then aliquoted into the bioassay at volumes ranging from 20-200 microlitres, ensuring no direct contact with the insect. Bottles were immediately sealed with Parafilm® and maintained at room temperature. The mortality of insects was monitored daily for three days exposure, by assessing insect movement as an indicator of mortality. The mortality was calculated by comparing the number of dead insects to the total number in the bioassay, and expressed as percentage mortality. Data were analysed using ANOVA as performed in GenStat, version 14. The experiment was fully randomised with 4 replicates for each endophyte.

Pseudomonas syringae = test: Bactericidal bioassay, compounds alone or in synergy; assay type: cell-based; details: for Growth Scale: compound alone, 10 μL, 3 days, 2 equivalent growth to control, 1 less growth, 0 no growth; for activity against P. syringae: used alone (acetaldehyde, isovaleraldehyde: alone or in combination)
Text: A bactericidal bioassay was established to evaluate the effect of the most insecticidal candidate compounds against the plant pathogenic bacterium Pseudomonas syringae, when applied alone or in synergy with other compounds from the volatolome of Daldinia sp. The pathogen was inoculated on to one third of the Petri plate by streaking bacterial cells from an actively growing culture (overnight) on to nutrient agar (NA). A candidate compound was then aliquoted (10 microlitres—except Acetaldehyde: 20 microlitres due to high volatility) onto another third of the Petri plate on filter paper. […] An untreated control was included and consisted of no compounds.

Fusarium verticillioides = test: Fungicidal bioassay, compounds alone or in synergy; assay type: cell-based; details: for % Inhibition (v control): 4 days; for fungicidal activity against F. verticillioides: in isolation; for inhibition of growth of the pathogen: in isolation and in combination with any of the compounds tested
Text: A fungicidal bioassay was established to evaluate the effect of key compounds from the volatolome of Daldinia sp. against the plant pathogenic fungus, Fusarium verticillioides, when applied alone and in synergy with other compounds from the volatolome of Daldinia sp. The pathogen was inoculated on to one third of the Petri plate by placing an agar plug of actively growing hyphae onto PDA. Candidate compounds were then aliquoted (10 microlitres) on to another third of the Petri plate on filter paper. […] After 4 days the growth of the pathogen was determined by measuring the radius of the colony (on two alternate planes).

Compound: C1=CCCCC=C1 [1,3 Cycloheptadiene, 1,3-cycloheptadiene]
- % Mortality Day 1 (Tribolium castaneum; 5 microlitre, Day 1): 12.5%
- % Mortality Day 2 (Tribolium castaneum; 5 microlitre, Day 2): 20.8%
- % Mortality Day 3 (Tribolium castaneum; 5 microlitre, Day 3): 27.5%
- % Mortality Day 4 (Tribolium castaneum; 5 microlitre, Day 4): 27.5%

Compound: CC1=CCC=CC1 [1-Methyl-1,4-cyclohexadiene]
- % Mortality Day 1 (Tribolium castaneum; 5 microlitre, Day 1): 0.0%
- % Mortality Day 2 (Tribolium castaneum; 5 microlitre, Day 2): 0.0%
- % Mortality Day 3 (Tribolium castaneum; 5 microlitre, Day 3): 0.0%
- % Mortality Day 4 (Tribolium castaneum; 5 microlitre, Day 4): 0.0%

Compound: CC(=O)C(C)=O [2,3 Butanedione, 2,3-butanedione]
- % Mortality Day 1 (Tribolium castaneum; in vivo): 0.0%
- % Mortality Day 2 (Tribolium castaneum; in vivo): 0.0%
- % Mortality Day 3 (Tribolium castaneum; in vivo): 0.0%
- % Mortality Day 4 (Tribolium castaneum; in vivo): 0.0%
- mortality grouping in title of Table 5 (Tribolium castaneum; in vivo): 1,4-cyclohexadiene, Toluene, 2,3 Butanedione, Ethanol: 0% mortality).

Compound: CCC(C)CO (stereo not shown) [2-Methyl-1-butanol]
- % Mortality Day 1 (Tribolium castaneum; 5 microlitre, Day 1): 80.0%
- % Mortality Day 2 (Tribolium castaneum; 5 microlitre, Day 2): 80.0%
- % Mortality Day 3 (Tribolium castaneum; 5 microlitre, Day 3): 80.0%
- % Mortality Day 4 (Tribolium castaneum; 5 microlitre, Day 4): 80.0%

Compound: CCCC(C)O (stereo not shown) [2-Pentanol]
- % Mortality Day 1 (Tribolium castaneum; 5 microlitre, Day 1): 0.0%
- % Mortality Day 2 (Tribolium castaneum; 5 microlitre, Day 2): 0.0%
- % Mortality Day 3 (Tribolium castaneum; 5 microlitre, Day 3): 0.0%
- % Mortality Day 4 (Tribolium castaneum; 5 microlitre, Day 4): 0.0%

Compound: CC(C)CCO [3-Methyl-1-butanol]
- % Mortality Day 1 (Tribolium castaneum; in vivo): 45.0%
- % Mortality Day 2 (Tribolium castaneum; in vivo): 45.0%
- % Mortality Day 3 (Tribolium castaneum; in vivo): 50.0%
- % Mortality Day 4 (Tribolium castaneum; in vivo): 50.0%

Compound: CCC(O)CC [3-Pentanol]
- % Mortality Day 1 (Tribolium castaneum; 5 microlitre, Day 1): 100.0%
- % Mortality Day 2 (Tribolium castaneum; 5 microlitre, Day 2): 100.0%
- % Mortality Day 3 (Tribolium castaneum; 5 microlitre, Day 3): 100.0%
- % Mortality Day 4 (Tribolium castaneum; 5 microlitre, Day 4): 100.0%
- mortality after a 1 day exposure, 20 μL (T. castaneum; in vivo): 100%
- mortality after a 1 day exposure, 50 μL (T. castaneum; in vivo): 100%
- mortality after a 1 day exposure, 100 μL (T. castaneum; in vivo): 100%
- mortality after a 1 day exposure, 150 μL (T. castaneum; in vivo): 100%
- mortality after a 1 day exposure, 200 μL (T. castaneum; in vivo): 100%
- mortality after one day (T. castaneum; in vivo): 100%
- Growth Scale (Pseudomonas syringae): 2
- activity against P. syringae (Pseudomonas syringae): did not exhibit any activity
- % Inhibition (v control) (Fusarium verticillioides; compound alone, 10 uL): 47.3%
- fungicidal activity against F. verticillioides (Fusarium verticillioides): moderate fungicidal activity

Compound: CC(=O)CCO [4-Hydroxy-2-butanone]
- % Mortality Day 1 (Tribolium castaneum; 5 microlitre, Day 1): 4.0%
- % Mortality Day 2 (Tribolium castaneum; 5 microlitre, Day 2): 4.0%
- % Mortality Day 3 (Tribolium castaneum; 5 microlitre, Day 3): 4.0%
- % Mortality Day 4 (Tribolium castaneum; 5 microlitre, Day 4): 4.0%

Compound: CC1CC=CCC1 (stereo not shown) [4-Methylcyclohexene]
- % Mortality Day 1 (Tribolium castaneum; 5 microlitre, Day 1): 4.0%
- % Mortality Day 2 (Tribolium castaneum; 5 microlitre, Day 2): 13.7%
- % Mortality Day 3 (Tribolium castaneum; 5 microlitre, Day 3): 17.7%
- % Mortality Day 4 (Tribolium castaneum; 5 microlitre, Day 4): 17.7%

Compound: CC=O [Acetaldehyde]
- % Mortality Day 1 (Tribolium castaneum; 5 microlitre, Day 1): 36.0%
- % Mortality Day 2 (Tribolium castaneum; 5 microlitre, Day 2): 36.0%
- % Mortality Day 3 (Tribolium castaneum; 5 microlitre, Day 3): 36.0%
- % Mortality Day 4 (Tribolium castaneum; 5 microlitre, Day 4): 36.0%
- mortality after a 1 day exposure, 20 μL (T. castaneum; Volume 20 μL in 1 litre bottle, 1 day): 2.3%
- mortality after a 1 day exposure, 50 μL (T. castaneum; Volume 50 μL in 1 litre bottle, 1 day): 28.3%
- mortality after a 1 day exposure, 100 μL (T. castaneum; Volume 100 μL in 1 litre bottle, 1 day): 98.2%
- mortality after a 1 day exposure, 150 μL (T. castaneum; Volume 150 μL in 1 litre bottle, 1 day): 100%
- mortality after a 1 day exposure, 200 μL (T. castaneum; Volume 200 μL in 1 litre bottle, 1 day): 100%
- mortality after a 1 day exposure (T. castaneum; volumes ranging from 100-200 microlitres): 98.2-100.0%
- activity against P. syringae (Pseudomonas syringae): high bactericidal activity
- fungicidal activity against F. verticillioides (Fusarium verticillioides): high fungicidal activity
- inhibition of growth of the pathogen (Fusarium verticillioides): 100%

Compound: CC(=O)C(C)O (stereo not shown) [Acetoin, acetoin]
- % Mortality Day 1 (Tribolium castaneum; 5 microlitre, Day 1): 100.0%
- % Mortality Day 2 (Tribolium castaneum; 5 microlitre, Day 2): 100.0%
- % Mortality Day 3 (Tribolium castaneum; 5 microlitre, Day 3): 100.0%
- % Mortality Day 4 (Tribolium castaneum; 5 microlitre, Day 4): 100.0%
- mortality after a 1 day exposure (T. castaneum; in vivo): 100%
- mortality after a 1 day exposure, 20 μL (T. castaneum; in vivo): 3%
- mortality after a 1 day exposure, 50 μL (T. castaneum; in vivo): 100%
- mortality after a 1 day exposure, 100 μL (T. castaneum; in vivo): 100%
- mortality after a 1 day exposure, 150 μL (T. castaneum; in vivo): 100%
- mortality after a 1 day exposure, 200 μL (T. castaneum; in vivo): 100%
- Growth Scale (Pseudomonas syringae): 2
- activity against P. syringae (Pseudomonas syringae): did not exhibit any activity
- % Inhibition (v control) (Fusarium verticillioides; compound alone, 10 uL): 0%
- fungicidal activity against F. verticillioides (Fusarium verticillioides): no activity

Compound: O=Cc1ccccc1 [Benzaldehyde]
- % Mortality Day 1 (Tribolium castaneum; 5 microlitre, Day 1): 0.0%
- % Mortality Day 2 (Tribolium castaneum; 5 microlitre, Day 2): 0.0%
- % Mortality Day 3 (Tribolium castaneum; 5 microlitre, Day 3): 0.0%
- % Mortality Day 4 (Tribolium castaneum; 5 microlitre, Day 4): 0.0%

Compound: CCCC=O [Butyraldehyde]
- % Mortality Day 1 (Tribolium castaneum; in vivo): 31.5%
- % Mortality Day 2 (Tribolium castaneum; in vivo): 39.5%
- % Mortality Day 3 (Tribolium castaneum; in vivo): 39.5%
- % Mortality Day 4 (Tribolium castaneum; in vivo): 39.5%

Compound: CCCC(=O)O [Butyric acid]
- % Mortality Day 1 (Tribolium castaneum; 5 microlitre, Day 1): 0.0%
- % Mortality Day 2 (Tribolium castaneum; 5 microlitre, Day 2): 0.0%
- % Mortality Day 3 (Tribolium castaneum; 5 microlitre, Day 3): 6.9%
- % Mortality Day 4 (Tribolium castaneum; 5 microlitre, Day 4): 6.9%

Compound: CCO [Ethanol]
- % Mortality Day 1 (Tribolium castaneum; in vivo): 0.0%
- % Mortality Day 2 (Tribolium castaneum; in vivo): 0.0%
- % Mortality Day 3 (Tribolium castaneum; in vivo): 0.0%
- % Mortality Day 4 (Tribolium castaneum; in vivo): 0.0%
- mortality grouping in title of Table 5 (Tribolium castaneum; in vivo): 1,4-cyclohexadiene, Toluene, 2,3 Butanedione, Ethanol: 0% mortality).

Compound: CC(C)CC=O [Isovaleraldehyde]
- % Mortality Day 1 (Tribolium castaneum; 5 microlitre, Day 1): 100.0%
- % Mortality Day 2 (Tribolium castaneum; 5 microlitre, Day 2): 100.0%
- % Mortality Day 3 (Tribolium castaneum; 5 microlitre, Day 3): 100.0%
- % Mortality Day 4 (Tribolium castaneum; 5 microlitre, Day 4): 100.0%
- mortality after a 1 day exposure (T. castaneum; in vivo): 100%
- mortality after a 1 day exposure, 20 μL (T. castaneum; in vivo): 3%
- mortality after a 1 day exposure, 50 μL (T. castaneum; in vivo): 100%
- mortality after a 1 day exposure, 100 μL (T. castaneum; in vivo): 100%
- mortality after a 1 day exposure, 150 μL (T. castaneum; in vivo): 100%
- mortality after a 1 day exposure, 200 μL (T. castaneum; in vivo): 100%
- Growth Scale (Pseudomonas syringae): 0.25
- activity against P. syringae (Pseudomonas syringae): high bactericidal activity
- % Inhibition (v control) (Fusarium verticillioides; compound alone, 10 uL): 100.0%
- Activity (fungistatic or fungicidal) (Fusarium verticillioides; compound alone, 10 uL, plug on fresh PDA plate): Fungicidal
- fungicidal activity against F. verticillioides (Fusarium verticillioides): high fungicidal activity
- inhibition of growth of the pathogen (Fusarium verticillioides): 100%

Compound: C=C1CCCCC1 [Methylenecyclohexane]
- % Mortality Day 1 (Tribolium castaneum; 5 microlitre, Day 1): 8.0%
- % Mortality Day 2 (Tribolium castaneum; 5 microlitre, Day 2): 8.0%
- % Mortality Day 3 (Tribolium castaneum; 5 microlitre, Day 3): 16.0%
- % Mortality Day 4 (Tribolium castaneum; 5 microlitre, Day 4): 16.0%

Compound: C1=CC2(C=C1)CC2 [Spiro[2.4]hepta-4,6-diene]
- % Mortality Day 1 (Tribolium castaneum; 5 microlitre, Day 1): 87.1%
- % Mortality Day 2 (Tribolium castaneum; 5 microlitre, Day 2): 100.0%
- % Mortality Day 3 (Tribolium castaneum; 5 microlitre, Day 3): 100.0%
- % Mortality Day 4 (Tribolium castaneum; 5 microlitre, Day 4): 100.0%
